{"source": "patent US20230301988A1", "about": "(priority 2020, published 2023)", "key": {"cathepsin L [1]": {"molecular_target": "T1, cathepsin L (Homo sapiens, UniProt P07711)", "T1 sequence (P07711 114-333)": "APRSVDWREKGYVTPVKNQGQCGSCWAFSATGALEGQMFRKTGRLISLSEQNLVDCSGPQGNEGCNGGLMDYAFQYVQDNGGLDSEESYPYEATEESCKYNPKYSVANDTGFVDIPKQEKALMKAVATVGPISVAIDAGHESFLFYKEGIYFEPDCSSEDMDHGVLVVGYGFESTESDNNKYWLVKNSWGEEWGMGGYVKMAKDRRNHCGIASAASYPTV", "assay": "Kinetic assay for cathepsin L", "assay_type": "biochemical", "experimental": "(§1) For assays of cathepsin B, L, and S, cruzain inhibitors were evaluated in reaction mixtures containing a buffer of sodium acetate (pH 5.5), 1 mM CHAPS, 1 mM Na2EDTA, and 5 mM DTT at 25° C. The substrate Cbz-Phe-Arg-AMC was dissolved in 100% DMSO, as were all inhibitors, and aliquots of both substrates and inhibitors were added to 0.25 mL reaction mixtures to final concentrations of 10% DMSO (v/v). […] Cruzain inhibitors were added at seven concentrations and one fixed concentration of Cbz-Phe-Arg-AMC, and time courses of AMC formation were analyzed as with cruzain."}, "cathepsin B": {"molecular_target": "cathepsin B (Homo sapiens, UniProt P07858)", "assay": "Kinetic assay for cathepsin B", "assay_type": "biochemical", "details": "substrate, pH 5.5, 25° C."}, "cathepsin S": {"molecular_target": "cathepsin S (Homo sapiens, UniProt P25774)", "sequence (P25774 115-331)": "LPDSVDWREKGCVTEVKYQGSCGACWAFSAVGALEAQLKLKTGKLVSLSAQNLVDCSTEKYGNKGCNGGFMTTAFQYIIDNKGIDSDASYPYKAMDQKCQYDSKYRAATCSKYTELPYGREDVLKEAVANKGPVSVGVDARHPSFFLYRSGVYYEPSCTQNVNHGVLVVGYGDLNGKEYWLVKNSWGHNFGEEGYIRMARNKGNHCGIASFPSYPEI", "assay": "Kinetic assay for cathepsin S", "assay_type": "biochemical", "experimental": "as §1"}, "Vero E6 cells [2]": {"tested_on": "Vero E6 cells", "assay": "Azide enrichment and proteomic analysis of K11777-alkyne treated Vero E6 cells", "assay_type": "cell-based, African green monkey", "experimental": "Cell lysates of Vero E6 cells were prepared as described above. Enrichment of alkyne-modified proteins was conducted using the Click-&-Go Protein Enrichment Kit (Click Chemistry Tools) and the protocols thereof. Proteolysis of the resin-bound, enriched proteins, which had been reduced with DTT and alkylated with iodoacetamide, was conducted by addition of 1 μg of Trypsin Gold (Promega) at 37° C. overnight with gentle agitation. The digested peptides were then eluted from the column and subjected to desalting using Pierce™ C18 Tips, 100 μL bed (Thermo Fisher Scientific). The desalted peptides were concentrated to dryness via speed vacuum centrifugation, and suspended in 25 mM ammonium bicarbonate. […]\nData were processed using MaxQuant 1.6.14. Label-free quantification was enabled at the default parameters. […] MaxQuant result files were analyzed using Perseus 1.6.14. Reverse hits, potential contaminant hits, hits only identified by site and hits for which only one peptide was detected were removed. Only proteins which were not detected in the control were considered. […] Finally, proteins which were detected in at least two test samples were clustered based on highest to lowest intensity in the 5 μM and 10 μM treated columns at default parameters (column clustering was disabled) and plotted as a heat map."}, "Vero E6 cells [3]": {"tested_on": "Vero E6 cells", "assay": "Bio-orthogonal labeling of protein targets in Vero E6 cells, in-gel fluorescence", "assay_type": "cell-based, African green monkey", "details": "for labelling of the 24-25-kDa protein by K11777-alkyne after pre-treatment: pre-treatment 1 μM K777, 1 μM K777 alkyne, SARS-CoV-2 infected and uninfected cells", "experimental": "4N-propargyl-K11777 was added at concentrations of 1-10 µM to Vero E6 (African green monkey kidney cells), with and without infection by SARS CoV-2 viral particles at an multiplicity of infection of 0.1. […] Cells growth continued for 4 days, followed by harvest, and ˜ 20 million cells were suspended in 1 mL of lysis buffer (200 mM Tris, 4% CHAPS, 1M NaCl, 8 M Urea, pH=8) and protease inhibitor cocktail (Sigma Aldrich) at a ratio of 50:1 (v/v). Cells were lysed by sonication (ThermoFisher Scientific), with the sample on ice, with a ⅛-inch probe at 20% amplitude for 3-seconds, three times with a minute delay between pulses. The cell debris was pelleted (10,000×g for 10 minutes) followed by removal of the supernatant and determination of protein concentration by BCA assay (ThermoFisher Scientific). Labeling of the K11777-alkyne-treated cells was performed in a stepwise fashion whereby 100 mM TBTA in 1:4 DMSO: n-butanol (v/v) was added to 1 mM CuSO4 in water, followed by the addition of 20 mM Cy7-azide (Click Chemistry Tools) in DMSO, 24 μg cell lysate, and finally 2.5 mM sodium ascorbate in water. This reaction was incubated at room temperature for 1-3 hours and quenched by the addition ice-cold methanol (200 μL), chloroform (75 μL), and water (150 μL) followed by vortexing and centrifugation at 15,000 RPM at 4° C. for 15 minutes. […] Then, 4× loading dye (240 mM Tris-HCl, 8% SDS (w/v), 0.004% bromophenol blue (to avoid fluorescence from the dye), 5 mM DTT, and MilliQ water was added to a total volume of 24 μL. Samples were heated to 95° C. for 5 minutes followed by a brief centrifugation at 5,000 RPM for 1 min. The protein-standards ladder (Bio-Rad, Precision Plus Protein™ Dual Color Standards) was diluted 10,000 fold in 4% SDS buffer, loading dye, and water and loading dye 4× loading dye and water to avoid strong fluorescence from the ladder during imaging. Samples were analyzed on a 12% Bis-Tris Nu-PAGE gel (Invitrogen). […] Densitometry of in gel fluorescence was conducted using ImageJ. The gels were also analyzed by Coomassie Brilliant Blue R-250 staining (Bio-Rad)."}, "cruzain": {"molecular_target": "cruzain (Trypanosoma cruzi, UniProt P25779)", "sequence (P25779 123-337)": "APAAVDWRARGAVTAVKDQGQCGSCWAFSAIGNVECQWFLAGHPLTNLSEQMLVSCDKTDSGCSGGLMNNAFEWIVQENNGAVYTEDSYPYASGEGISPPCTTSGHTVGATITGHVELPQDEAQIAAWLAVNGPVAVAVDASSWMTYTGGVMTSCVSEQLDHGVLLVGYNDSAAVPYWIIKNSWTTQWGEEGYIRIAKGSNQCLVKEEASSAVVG", "assay": "Cruzain inactivation", "assay_type": "biochemical"}, "cathepsin L [4]": {"molecular_target": "T1, cathepsin L", "assay": "Proteolysis of SARS CoV-2 Spike protein by cathepsin L", "assay_type": "biochemical", "details": "pH 5.5"}, "pseudovirus SARS CoV-1": {"tested_on": "pseudovirus SARS CoV-1", "details": "cited from earlier work"}, "host cells": {"tested_on": "host cells", "assay": "Toxicity in host cells"}}, "note": "Residues, ends and D or L forms follow the SMILES beside them."}
{"smiles": "Cc1cc(=O)oc2cc(NC(=O)[C@H](CCCN=C(N)N)NC(=O)[C@H](Cc3ccccc3)NC(=O)OCc3ccccc3)ccc12", "note": "[Cbz-Phe-Arg-AMC, reference compound] (HELM PEPTIDE1{[O=C(OCc1ccccc1)[*:2]].F.R.[Cc1cc(=O)oc2cc(N[*:1])ccc12]}$$$$V2.0)", "values": [{"measurement": "Michaelis constant", "setting": "cathepsin L [1]; substrate, pH 5.5, 25° C.", "value": 2.9, "unit": "µM"}, {"measurement": "Michaelis constant", "setting": "cathepsin B", "value": 150, "unit": "µM"}, {"measurement": "Michaelis constant", "setting": "cathepsin S; substrate, pH 5.5, 25° C.", "value": 60, "unit": "µM"}]}
{"smiles": "C#CCN1CCN(C(=O)N[C@@H](Cc2ccccc2)C(=O)N[C@H](/C=C/S(=O)(=O)c2ccccc2)CCc2ccccc2)CC1", "note": "[N4-Propargyl-K11777, N-((S)-1-oxo-3-phenyl-1-(((S,E)-5-phenyl-1-(phenylsulfonyl)pent-1-en-3-yl)amino)propan-2-yl)-4-(prop-2-yn-1-yl)piperazine-1-carboxamide]", "values": [{"measurement": "most enriched labeled proteins (bead capture, mass spectrometry)", "setting": "Vero E6 cells [2]; listed as K777 alkyne", "value": "cathepsins B and L are strongly enriched"}, {"measurement": "most enriched labeled proteins (bead capture, mass spectrometry)", "setting": "Vero E6 cells [2]; listed as N4-propargyl analogue of K11777", "value": "cathepsins L and B"}, {"measurement": "proteins labeled in Vero E6 cells", "setting": "Vero E6 cells [3]; infected and un-infected with CoV-2, Cy7 azide", "value": "labels only cellular proteins of an apparent molecular weight of 24-25 kDa"}]}
{"smiles": "CN1CCN(C(=O)N[C@@H](Cc2ccccc2)C(=O)N[C@H](/C=C/S(=O)(=O)c2ccccc2)CCc2ccccc2)CC1", "note": "[K11777, 4-methyl-N-((S)-1-oxo-3-phenyl-1-(((S,E)-5-phenyl-1-(phenylsulfonyl)pent-1-en-3-yl)amino)propan-2-yl)piperazine-1-carboxamide]", "values": [{"measurement": "inactivation of cathepsin L", "setting": "cathepsin L [1]", "value": "exceptionally potent, covalent inactivator"}, {"measurement": "inactivation of cruzain", "setting": "cruzain", "value": "exceptionally potent, covalent inactivator"}, {"measurement": "inactivation of cathepsin S", "setting": "cathepsin S", "value": "exceptionally potent, covalent inactivator"}, {"measurement": "cathepsin L-catalyzed proteolysis of SARS CoV-2 Spike protein", "setting": "cathepsin L [4]", "value": "blocked"}, {"measurement": "cathepsin L-catalyzed proteolysis of SARS CoV-2 Spike protein", "setting": "cathepsin L [4]; listed as K777", "value": "inhibited"}, {"measurement": "infection of Vero, A549 and other mammalian cells by pseudovirus SARS CoV-1", "setting": "pseudovirus SARS CoV-1", "value": "exceptionally potent inhibitor"}, {"measurement": "toxicity in host cells", "setting": "host cells", "value": "No toxicity"}, {"measurement": "labelling of the 24-25-kDa protein by K11777-alkyne after pre-treatment", "setting": "Vero E6 cells [3]", "value": "prevented labelling"}, {"measurement": "labelling of the 24-25-kDa protein by K11777-alkyne after pre-treatment", "setting": "Vero E6 cells [3]; listed as K777", "value": "blocked"}]}
